From patent US5525627A, “Esters of acyl carnitines with long-chain aliphatic alcohols and pharmaceutical compositions containing same having antimycotic activity” (Sigma-Tau Industrie Farmaceutiche Riunite S.p.A., priority 1992, dated 1996)

Legend:
[1] = tested on: Aspergillus fumigatus (1/A); test: MIC for filamentous fungi; type: cell-based; conditions: read-out: Minimal Inhibitory Concentration (MIC)
Description: (§1) The following strains were used (the number of strains is in brackets): Aspergillus (5); Fusarium (1); Mucor (1); Penicillium (1).
(§2) The tested substances were: ST 712, ST 722, ST 982, ST 983, ST 1000, ST 1001, ST 1032, ST 1033, ST 1034, ST 1036, ST 1037, ST 1038, ST 1050, ST 1051, ST 1052, ST 1053. The assay medium was the same as the one used in the previous study. The conidia from 72-hour cultures in Sabouraud agar, collected by washing with Sabouraud medium and Tween 80 (one drop of Tween per 10 ml of medium), were utilized as inoculum (5.0×10^4 CFU/ml).
(§3) The assay was performed using the same procedure as described for yeast-like fungi.
(§4) Also the evaluation of MIC and MFC was as reported previously.

[2] = tested on: Aspergillus niger (ATCC 16404); test: MIC for filamentous fungi; type: cell-based; conditions: ATCC16404, read-out: Minimal Inhibitory Concentration (MIC)
Description: as §1, §2, §3, §4

[3] = tested on: Aspergillus fumigatus (ATCC 28212); test: MIC for filamentous fungi; type: cell-based; conditions: ATCC28212, read-out: Minimal Inhibitory Concentration (MIC)
Description: as §1, §2, §3, §4

[4] = tested on: Aspergillus fumigatus (C/1); test: MIC for filamentous fungi; type: cell-based; conditions: read-out: Minimal Inhibitory Concentration (MIC)
Description: as §1, §2, §3, §4

[5] = tested on: Aspergillus fumigatus (2/A); test: MIC for filamentous fungi; type: cell-based; conditions: read-out: Minimal Inhibitory Concentration (MIC)
Description: as §1, §2, §3, §4

Mucor mucedo (ATCC 7941) = test: MIC for filamentous fungi; type: cell-based; conditions: ATCC7941, read-out: Minimal Inhibitory Concentration (MIC)
Description: as §1, §2, §3, §4

Candida albicans (A 54) = test: MIC for yeast and yeast-like strains; type: cell-based; conditions: 48 hours, 35° C., read-out: Minimal Inhibitory Concentration (MIC)
Experimental: (§5) The following strains were used (the number of strains is in brackets): Candida (13); Criptococcus (2); Saccharormyces (1); Torulopsis (1).
(§6) Yeast Nitrogen Base supplemented with 0.15% asparagine and 1.0% glucose (as carbon source) was the medium utilized in the assays.
(§7) This medium was buffered with 0.165 M 2-(N-morpholino) propane sulfonic acid (MOPS), a non-chelating buffer. […]
(§8) The inoculum was prepared from an overnight broth culture (a 48-hour culture only for Cryptococcus) in Sabouraud broth and appropriately diluted to yield a final suspension containing approximately 5.0×10^6 Colony Forming Units per ml (CFU/ml), when compared to the Mc Farland's standard control (BRAY W. E., Clinical Laboratory Methods, 5th Ed. C. V. MOSBY, St. Louis, Mo, 1957).
(§9) After further diluting (1:50), a […] volume of such fungal suspensions and an equal volume of the substance solutions were distributed into each well of a microtiter plate (96 wells, round bottom). Such a procedure eventually allowed for an "in vitro" antimycotic activity assay utilizing final fungal inocula of approximately 5.0×10^4 CFU/ml.

[6] = tested on: Torulopsis candida (D.S.); test: MIC for yeast and yeast-like strains; type: cell-based; conditions: Suzukiozyma candida; 48 hours, 35° C.; read-out: Minimal Inhibitory Concentration (MIC)
Experimental: as §5, §6, §7, §8, §9

Candida albicans (Ca 2) = test: MIC for yeast and yeast-like strains; type: cell-based; conditions: 48 hours, 35° C., read-out: Minimal Inhibitory Concentration (MIC)
Experimental: as §5, §6, §7, §8, §9

[7] = tested on: Saccharomyces cerevisiae (ATCC 7752); test: MIC for yeast and yeast-like strains; type: cell-based; conditions: ATCC7752, 48 hours, 35° C., read-out: Minimal Inhibitory Concentration (MIC)
Experimental: as §5, §6, §7, §8, §9

Candida albicans (562) = test: MIC for yeast and yeast-like strains; type: cell-based; conditions: 48 hours, 35° C., read-out: Minimal Inhibitory Concentration (MIC)
Experimental: as §5, §6, §7, §8, §9

[8] = tested on: Cryptococcus neoformans (4711); test: MIC for yeast and yeast-like strains; type: cell-based; conditions: 48 hours, 35° C., read-out: Minimal Inhibitory Concentration (MIC)
Experimental: as §5, §6, §7, §8, §9

[9] = tested on: Candida tropicalis (5705); test: MIC for yeast and yeast-like strains; type: cell-based; conditions: 48 hours, 35° C., read-out: Minimal Inhibitory Concentration (MIC)
Experimental: as §5, §6, §7, §8, §9

[10] = Assessment of behaviour and mortality in mice (Irwin's method); design: species or system mice (male Crl:(CD-1)(ICR)BR); conditions: mouse, in vivo; oral, dose 1000 (unit inferred), 4 animals/dose
Experimental: (§10) ASSESSMENT OF BEHAVIOUR AND MORTALITY IN MICE
(§11) The assessment of normal behaviour in mice was carried out following S. Irwin's method (Psychopharmacologia, 13, 222 [1968]). This method allows alterations in some behavioural, neurophysiologic and neurovegetative parameters to be detected, which are directly observable by the researcher. The study was conducted using male Crl:(CD-1)(ICR)BR mice (Charles River-Italy) weighing 22-25 g. following oral administration of the compounds suspended in carboxymethylcellulose (0.5% by weight in H2 O) to groups of 4 animals/dose.
(§12) The animals were continously kept under observation for five hours following treatment and twice a day in the subsequent five days. Mortality was also observed during the overall test period.

mice = test: as above; design: species or system mice (male Crl:(CD-1)(ICR)BR); conditions: mouse, in vivo, po
Experimental: as §10, §11, §12

yeast-like fungi = test: MIC / MFC for yeast-like fungi, all strains; type: cell-based, Candida, Cryptococcus, Saccharomyces, Torulopsis; conditions: versus susceptible strains; read-out: Mean MIC values
Experimental: as §5, §6, §7, §8, §9
(§13) The minimal fungicidal concentration was evaluated by spot-transferring onto Petri dishes, containing Sabouraud agar, 0.01-ml volumes of all the samples showing no visible fungal growth.

Candida albicans (PG) = test: MIC and MFC for yeast and yeast-like strains; type: cell-based; conditions: 48 hours, 35° C., read-out: Minimal Inhibitory Concentration (MIC)
Experimental: as §5, §6
(§14) This medium was buffered with 0.165 M 2-(N-morpholino) propane sulfonic acid (MOPS), a non-chelating buffer.
(§15) Antimicrob. Agents Cheroother. Aug. 34.8:1542-1545).
as §8, §9, §13

[11] = tested on: Candida albicans (ATCC 2091); test: MIC for yeast and yeast-like strains; type: cell-based; conditions: ATCC2091, 48 hours, 35° C., read-out: Minimal Inhibitory Concentration (MIC)
Experimental: as §5, §6, §14, §15, §8, §9

[12] = tested on: Candida pseudotropicalis (EC 1); test: MIC for yeast and yeast-like strains; type: cell-based; conditions: Kluyveromyces marxianus; 48 hours, 35° C.; read-out: Minimal Inhibitory Concentration (MIC)
Experimental: as §5, §6, §14, §15, §8, §9

filamentous fungi = test: MIC / MFC for filamentous fungi, all strains; type: cell-based, Aspergillus, Fusarium, Mucor, Penicillium; conditions: versus susceptible strains; read-out: Mean MIC values
Description: as §1, §2, §3, §4

In the case of CCCCCCCCCCCOC(=O)C[C@H](C[N+](C)(C)C)OC(=O)C(C)C [ST 712, ISOBUTYRYL-L-CARNITINE UNDECYL ESTER CHLORIDE], the MIC [1] was 25 µg/mL, the MIC [2] was 50 µg/mL and the MIC [3] was 25 µg/mL. For the same compound, the MIC [4] was 25 µg/mL, the MIC [5] was 25 µg/mL and the MIC (Mucor mucedo (ATCC 7941)) was 50 µg/mL. It also gave an MIC (Candida albicans (A 54)) of 12.5 µg/mL, an MIC [6] of 12.5 µg/mL and an MIC (Candida albicans (Ca 2)) of 6.25 µg/mL. The MIC [7] was 6.25 µg/mL, the MIC (Candida albicans (562)) was 12.5 µg/mL and the MIC [8] was 3.12 µg/mL. The MIC [9] was 3.12 µg/mL, the mortality at 120 h [10] was 0% and the Symptoms (mice) was “NONE”. The MIC (yeast-like fungi) was 9.37 µg/mL, the MIC (Candida albicans (PG)) was 12.5 µg/mL and the MIC [11] was 12.5 µg/mL. The MIC [12] was 12.5 µg/mL and the MIC (filamentous fungi) was 30 µg/mL.
